For the assay, the target named is T1, recombinant full-length human prolyl endopeptidase (PREP) (Homo sapiens, UniProt P48147).
T1 construct: To recombinant full-length human prolyl endopeptidase (PREP, R&D-Systems, 4308-SE); purchased R&D-Systems 4308-SE
T1 sequence (P48147 1-710): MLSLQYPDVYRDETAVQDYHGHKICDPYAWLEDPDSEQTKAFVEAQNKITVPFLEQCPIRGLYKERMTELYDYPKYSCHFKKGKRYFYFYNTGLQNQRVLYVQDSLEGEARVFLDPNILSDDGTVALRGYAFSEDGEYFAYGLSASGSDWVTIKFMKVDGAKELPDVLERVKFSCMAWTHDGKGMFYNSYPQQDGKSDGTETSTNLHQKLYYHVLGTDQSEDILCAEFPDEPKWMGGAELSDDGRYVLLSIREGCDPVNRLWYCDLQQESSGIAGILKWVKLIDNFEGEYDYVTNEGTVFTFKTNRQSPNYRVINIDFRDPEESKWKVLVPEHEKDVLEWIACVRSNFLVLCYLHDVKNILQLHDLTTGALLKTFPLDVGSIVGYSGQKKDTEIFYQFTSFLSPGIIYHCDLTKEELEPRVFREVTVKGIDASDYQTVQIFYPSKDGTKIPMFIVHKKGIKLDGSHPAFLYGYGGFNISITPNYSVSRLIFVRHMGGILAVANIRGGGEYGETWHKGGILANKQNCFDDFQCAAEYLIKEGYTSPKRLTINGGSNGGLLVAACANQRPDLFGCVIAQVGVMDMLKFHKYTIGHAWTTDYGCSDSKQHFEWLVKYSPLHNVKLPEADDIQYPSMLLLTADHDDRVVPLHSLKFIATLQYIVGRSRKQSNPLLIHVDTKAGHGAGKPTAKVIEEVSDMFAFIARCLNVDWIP
Briefly: Biochemical human prolyl endopeptidase (PREP) assay with fluorescently labelled substrate. Particulars: substrate Z-Gly-Pro-AMC 50 μM, 32° C., 60 min; some as mean values from multiple independent determinations. An outline of the steps: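 0.4 nM (final, example) recombinant PREP in pH 7.5 Tris buffer with EDTA, GSH, BSA and Brij-35; compounds at 1 nM to 30 μM. Reaction started with 50 μM Z-Gly-Pro-AMC and followed by fluorescence (ex 360/em 465 nm) at 32° C for 60 min. IC50 interpolated from percent activity based on initial slopes.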
Take `O=C(C1CCCc2nn(Cc3cc(C(F)(F)F)ccc3C(F)(F)F)c(=O)n21)N1CCCC1` (racemic) [Example 65, (5RS)-2-[2,5-Bis(trifluoromethyl)benzyl]-5-(pyrrolidin-1-ylcarbonyl)-5,6,7,8-tetrahydro[1,2,4]triazolo[4,3-a]pyridin-3(2H)-one]: the concentration for half-maximal inhibition (IC50) is 1.85 nM.

`O=C(C1CCCc2nn(Cc3ccc(F)c(C(F)(F)F)c3)c(=O)n21)N1CCCC1` (racemic) [Example 66]: the IC50 was 0.38 nM.

On to `O=C(C1CCCc2nn(Cc3ccc(OC(F)(F)F)c(F)c3)c(=O)n21)N1CCCC1` (racemic) [Example 67, (5RS)-2-[3-Fluoro-4-(trifluoromethoxy)benzyl]-5-(pyrrolidin-1-ylcarbonyl)-5,6,7,8-tetrahydro[1,2,4]triazolo[4,3-a]pyridin-3(2H)-one], for which the IC50 was 8.7 nM.

As to `O=C(C1CCCc2nn(Cc3ncc(C(F)(F)F)cc3Cl)c(=O)n21)N1CCCC1` (racemic) [Example 68, (5RS)-2-{[3-Chloro-5-(trifluoromethyl)pyridin-2-yl]methyl}-5-(pyrrolidin-1-ylcarbonyl)-5,6,7,8-tetrahydro[1,2,4]triazolo[4,3-a]pyridin-3(2H)-one], the half-inhibitory concentration (IC50) came out at 3.9 nM.

As to `O=C(C1CCCc2nn(Cc3noc(-c4cccc(C(F)(F)F)c4)n3)c(=O)n21)N1CCCC1` (racemic) [Example 69, (5RS)-5-(Pyrrolidin-1-ylcarbonyl)-2-({5-[3-(trifluoromethyl)phenyl]-1,2,4-oxadiazol-3-yl}methyl)-5,6,7,8-tetrahydro[1,2,4]triazolo[4,3-a]pyridin-3(2H)-one], the half-maximal inhibitory concentration (IC50) was found to be 210 nM.

`CCn1ccnc1Cn1nc2n(c1=O)C(C(=O)N1CCCC1)CCC2` (racemic) [Example 70, (5RS)-2-[(1-Ethyl-1H-imidazol-2-yl)methyl]-5-(pyrrolidin-1-ylcarbonyl)-5,6,7,8-tetrahydro[1,2,4]triazolo[4,3-a]pyridin-3(2H)-one]: the IC50 was determined as 11 nM.

As to `O=C(C1CCCc2nn(Cc3cccc(C(F)(F)F)c3F)c(=O)n21)N1CCCC1` (racemic) [Example 71], the 50% inhibitory concentration (IC50) was determined as 0.71 nM.

For `O=C(C1CCCc2nn(Cc3cc(F)cc(C(F)(F)F)c3)c(=O)n21)N1CCCC1` (racemic) [Example 72], the IC50 amounted to 0.83 nM.

For the compound `O=C(C1CCCc2nn(Cc3ccc(OC(F)(F)F)c(Cl)c3)c(=O)n21)N1CCCC1` (racemic) [Example 73, (5RS)-2-[3-Chloro-4-(trifluoromethoxy)benzyl]-5-(pyrrolidin-1-ylcarbonyl)-5,6,7,8-tetrahydro[1,2,4]triazolo[4,3-a]pyridin-3(2H)-one], the IC50 was found to be 1.5 nM.

Take `Cc1nc(C(F)(F)F)c(Cn2nc3n(c2=O)C(C(=O)N2CCCC2)CCC3)s1` (racemic) [Example 77, (5RS)-2-{[2-Methyl-4-(trifluoromethyl)-1,3-thiazol-5-yl]methyl}-5-(pyrrolidin-1-ylcarbonyl)-5,6,7,8-tetrahydro[1,2,4]triazolo[4,3-a]pyridin-3(2H)-one]: the IC50 came out at 4.8 nM.

Regarding `O=C(C1CCCc2nn(Cc3ccc(Cl)cn3)c(=O)n21)N1CCC(F)(F)C1` (racemic) [Example 78, (5RS)-2-[(5-Chloropyridin-2-yl)methyl]-5-[(3,3-difluoropyrrolidin-1-yl)carbonyl]-5,6,7,8-tetrahydro[1,2,4]triazolo[4,3-a]pyridin-3(2H)-one], the IC50 came to 6 nM.

On to `O=C(C1CCCc2nn(Cc3ccc(C(F)(F)F)nc3)c(=O)n21)N1CCC(F)(F)C1` (racemic) [Example 79, (5RS)-5-[(3,3-Difluoropyrrolidin-1-yl)carbonyl]-2-{[6-(trifluoromethyl)pyridin-3-yl]methyl}-5,6,7,8-tetrahydro[1,2,4]triazolo[4,3-a]pyridin-3(2H)-one], for which the half-inhibitory concentration (IC50) worked out at 6.7 nM.

As to `O=C(C1CCCc2nn(Cc3ccc(Cl)nc3)c(=O)n21)N1CCC(F)(F)C1` (racemic) [Example 80, (5RS)-2-[(6-Chloropyridin-3-yl)methyl]-5-[(3,3-difluoropyrrolidin-1-yl)carbonyl]-5,6,7,8-tetrahydro[1,2,4]triazolo[4,3-a]pyridin-3(2H)-one], the IC50 was found to be 16 nM.

As for `O=C(C1CCCc2nn(Cc3cc(Cl)cc(Cl)c3)c(=O)n21)N1CCCC1` (racemic) [Example 81, (5RS)-2-(3,5-Dichlorobenzyl)-5-(pyrrolidin-1-ylcarbonyl)-5,6,7,8-tetrahydro[1,2,4]triazolo[4,3-a]pyridin-3(2H)-one], the IC50 amounted to 0.84 nM.

For the compound `O=C(C1CCCc2nn(Cc3cc(Cl)cc(Cl)c3)c(=O)n21)N1CCC(F)(F)C1` (racemic) [Example 82, (5RS)-2-(3,5-Dichlorobenzyl)-5-[(3,3-difluoropyrrolidin-1-yl)carbonyl]-5,6,7,8-tetrahydro[1,2,4]triazolo[4,3-a]pyridin-3(2H)-one], the IC50 amounted to 1.75 nM.

In the case of `O=C(C1CCCc2nn(Cc3ccc(F)c(F)c3)c(=O)n21)N1CCC(F)(F)C1` (racemic) [Example 83, (5RS)-2-(3,4-Difluorobenzyl)-5-[(3,3-difluoropyrrolidin-1-yl)carbonyl]-5,6,7,8-tetrahydro[1,2,4]triazolo[4,3-a]pyridin-3(2H)-one], the IC50 was 2.1 nM.

Turning to `O=C(C1CCCc2nn(Cc3ccc(C(F)(F)F)nc3)c(=O)n21)N1CCCC1` (racemic) [Example 84, (5RS)-5-(Pyrrolidin-1-ylcarbonyl)-2-{[6-(trifluoromethyl)pyridin-3-yl]methyl}-5,6,7,8-tetrahydro[1,2,4]triazolo[4,3-a]pyridin-3(2H)-one], the IC50 stood at 5.7 nM.

Turning to `O=C(C1CCCc2nn(Cc3ccc(F)c(Cl)c3)c(=O)n21)N1CCC(F)(F)C1` (racemic) [Example 86, (5RS)-2-(3-Chloro-4-fluorobenzyl)-5-[(3,3-difluoropyrrolidin-1-yl)carbonyl]-5,6,7,8-tetrahydro[1,2,4]triazolo[4,3-a]pyridin-3(2H)-one], the IC50 was 1 nM.

Turning to `O=C(C1CCCc2nn(Cc3ccc4c(c3)CCCC4)c(=O)n21)N1CCC(F)(F)C1` (racemic) [Example 87, (5RS)-5-[(3,3-Difluoropyrrolidin-1-yl)carbonyl]-2-(5,6,7,8-tetrahydronaphthalen-2-ylmethyl)-5,6,7,8-tetrahydro[1,2,4]triazolo[4,3-a]pyridin-3(2H)-one], the IC50 was 1.17 nM.

Regarding `O=C(C1CCCc2nn(Cc3ccc4c(c3)CCCC4)c(=O)n21)N1CCCC1` (racemic) [Example 88, (5RS)-5-(Pyrrolidin-1-ylcarbonyl)-2-(5,6,7,8-tetrahydronaphthalen-2-ylmethyl)-5,6,7,8-tetrahydro[1,2,4]triazolo[4,3-a]pyridin-3(2H)-one], the IC50 was determined as 0.27 nM.

With `O=C(C1CCCc2nn(Cc3cc(F)c(F)cc3F)c(=O)n21)N1CCCC1` (racemic) [Example 89, (5RS)-5-(Pyrrolidin-1-ylcarbonyl)-2-(2,4,5-trifluorobenzyl)-5,6,7,8-tetrahydro[1,2,4]triazolo[4,3-a]pyridin-3(2H)-one], the half-maximal inhibitory concentration (IC50) came out at 1.3 nM.

Regarding `Cn1ccc(Cn2nc3n(c2=O)C(C(=O)N2CCC(F)(F)C2)CCC3)n1` (racemic) [Example 90, (5RS)-5-[(3,3-Difluoropyrrolidin-1-yl)carbonyl]-2-[(1-methyl-1H-pyrazol-3-yl)methyl]-5,6,7,8-tetrahydro[1,2,4]triazolo[4,3-a]pyridin-3(2H)-one], the IC50 was 9.8 nM.

Turning to `O=C(C1CCCc2nn(Cc3cc(F)c(F)cc3F)c(=O)n21)N1CCC(F)(F)C1` (racemic) [Example 91, (5RS)-5-[(3,3-Difluoropyrrolidin-1-yl)carbonyl]-2-(2,4,5-trifluorobenzyl)-5,6,7,8-tetrahydro[1,2,4]triazolo[4,3-a]pyridin-3(2H)-one], the IC50 was 2.3 nM.

As for `COc1ccc(Cn2nc3n(c2=O)C(C(=O)N2CCCC2)CCC3)cn1` (racemic) [Example 92, (5RS)-2-[(6-Methoxypyridin-3-yl)methyl]-5-(pyrrolidin-1-ylcarbonyl)-5,6,7,8-tetrahydro[1,2,4]triazolo[4,3-a]pyridin-3(2H)-one], the IC50 was 3 nM.

In the case of `O=C(C1CCCc2nn(Cc3ccc(F)c(Cl)c3)c(=O)n21)N1CC(O)C1` (racemic) [Example 95, (5RS)-2-(3-Chloro-4-fluorobenzyl)-5-[(3-hydroxyazetidin-1-yl)carbonyl]-5,6,7,8-tetrahydro[1,2,4]triazolo[4,3-a]pyridin-3(2H)-one], the concentration for half-maximal inhibition (IC50) turned out to be 9 nM.

For the compound `O=C(C1CCCc2nn(Cc3ccc(C(F)(F)F)nc3)c(=O)n21)N1CC(F)C1` (racemic) [Example 96, (5RS)-5-[(3-Fluoroazetidin-1-yl)carbonyl]-2-{[6-(trifluoromethyl)pyridin-3-yl]methyl}-5,6,7,8-tetrahydro[1,2,4]triazolo[4,3-a]pyridin-3(2H)-one], the IC50 is 7.4 nM.

These data come from patent US10722501B2 (BAYER AKTIENGESELLSCHAFT, priority 2016, dated 2020).
